Measured values as given in patent US6780596B2, “Methods for determining the activity of complex mixtures” (Ashni Naturaceuticals, Inc., priority 1998, dated 2004).

Test system: LNCaP prostate cells
Assay: Phosphotyrosyl protein expression in LNCaP prostate cells (SDS-PAGE, anti-phosphotyrosine immunoblot)
Assay type: cell-based, human
Conditions: for number of phosphotyrosylprotein bands decreased in staining intensity / affected: of sixteen bands in dividing LNCaP cells, 15 to 90 kDa
Excerpt: Chemicals: Anti-phosphotyrosine antibodies may be purchased from Upstate Biotechnology (Lake Placid, N.Y.). Saw palmetto (Serenoa repens) extract may be obtained from Ashland Nutritional (Irvine Calif.). All other chemicals may be purchased from Sigma Chemical Company (St. Louis, Mo.) and are the highest purity commercially available.
Human Prostate Cell Line: The LNCaP prostate cell line (CRL-1740) is useful as a model for prostate hyperplasia and may be obtained from the American Type Culture Collection (Bethesda, Md.). LNCaP cells were originally isolated from a person and are characteristic of prostatic carcinoma. They are androgen and estrogen responsive, produce prostate specific antigen (PSA), and prostatic acid phosphatase in culture.
Cell Plating: LNCaP cells may be propagated as monolayers according to the instructions of the supplier. For experiments, cells may be plated at a density of 1×10^5 cells per mL in 100 mm plates, 20 mL per plate, 3 plates per treatment. […]
On day three, a subset of control LNCaP cells is synchronized to Go by reducing the serum concentration of the medium to 0.5%. These cells are termed quiescent, resting or unstimulated LNCaP cells.
After a four-day incubation period with the test materials, the test LNCaP cells may be collected by washing plates three times with ice-cold phosphate-buffered saline, pH 7.4 (PBS) over ice, removed by scraping, pelleted by centrifugation at 4° C. The cell pellet may be lysed for 20 min. in 20 mM Tris buffer (pH 8.0) with 137 mM NaCl, 10% glycerol, 1% Nonidet P-40, 1 mM phenylmethylsulfonyl fluoride, 0.15 units/mL aprotonin, and 1 mM sodium orthovanadate while on wet ice. Cell lysates are collected after centrifugation at 30,000 rpm at 4° C. for 10 minutes to separate cellular debris from lysates.
Gel Electrophoresis: Sodium dodecyl sulfate polyacrylamide gel electrophoresis (PAGE) is performed using 10% polyacrylamide gels, as described by Laemmli, U.K. and Favre, M., 80 Journal of Molecular Biology 575-99 (1973), with the modification that the cell lysates (100 μg protein/lane) are heated at 100° C. for three minutes.
Immunoblotting: The immunoblotting is performed as described by Towbin et al., 76 Proc. Natl. Acad. Sci. USA 4350 (1979), however, a Milliblot SDE electroblot apparatus (Millipore, Bedford, Mass.), is used to transfer proteins from the polyacrylamide gels to an IMMOBILON® membrane filter. Complete transfers are accomplished in 25-30 minutes at 500 mA. Membranes used for blotting are blocked by incubating in TBS (Tris buffered saline, 50 mM Tris, 150 mM NaCl, pH 7.5) containing 5% nonfat dry milk for 30 minutes at room temperature. Phosphotyrosylproteins are visualized by incubation of the blots with the anti-phosphotyrosine antibody in TBST (0.05% Tween 20 in TBS) for two hours and then a second incubation at room temperature with alkaline phosphatase-conjugated secondary antibody diluted 1:1000 in TBST for two hours. The enzymatic reaction is developed for 15 minutes. Molecular weights of immuno-stained proteins are estimated by adding molecular weight standards to reference lanes and staining the membrane filters with amido black 10B.
Blots are translated into TIFF-formatted files with a Microtech 600GS scanner and quantified using Scan Analysis (BIOSOFT™, Cambridge, UK). Summary scans are then printed and peak heights are measured directly from figure. One density unit (Du) is defined as one mm of the resulting peak height.
Protein Determination: Spectrophotometric determination of protein concentration is determined with bicinchoninic acid as reported by Smith, et al. Measurement of protein using bicinchoninic acid. 150 ANAL. BIOCHEM. 76-85 (1985).
Statistical Analysis: Dose responses are defined as three or more consecutive doses resulting in a consistent, reproducible appearance or disappearance of a phosphotyrosylprotein in the immunoblot. […]

For `CC[C@H](CC[C@@H](C)[C@H]1CC[C@H]2[C@@H]3CC=C4C[C@@H](O)CC[C@]4(C)[C@H]3CC[C@]12C)C(C)C` [beta-sitosterol], the “phosphotyrosylproteins at 45 and 50 kDa” value (50 μg beta-sitosterol/mL) was “faint bands”, the “concentration at which the 36 and 40 kDa phosphotyrosylproteins disappear entirely” value (beta-sitosterol 5, 10 or 50 μg/mL) was 10 µg/mL and the “number of phosphotyrosylprotein bands decreased in staining intensity / affected” value was “four”.

For `CC(C)(C)NC(=O)[C@H]1CC[C@H]2[C@@H]3CC[C@H]4NC(=O)C=C[C@]4(C)[C@H]3CC[C@]12C` [finasteride, Finasteride], the “40 kDa band” value (0.05 μg/mL finasteride) was “barely visible”, the “tyrosylphosphorylation of the 28 and 36 kDa proteins” value (0.05 μg/mL finasteride) was “completely eliminated” and the “number of phosphotyrosylprotein bands decreased in staining intensity / affected” value was “three”.

With `CC(C)=CCC/C(C)=C/C=C/C(C)=C/C=C/C(C)=C/C=C/C=C(C)/C=C/C=C(C)/C=C/C=C(\C)CCC=C(C)C` [lycopene] the “concentration at which the 15, 17 and 20 kDa phosphotyrosylproteins disappear entirely” value (lowest concentration tested) was 100 ng/mL and the “number of phosphotyrosylprotein bands decreased in staining intensity / affected” value was “fourteen”.

`C/C1=C2/[N-][C@H]([C@H](CC(N)=O)[C@@]2(C)CCC(=O)NC[C@@H](C)OP(=O)([O-])O[C@H]2[C@@H](O)[C@@H](n3cnc4cc(C)c(C)cc43)O[C@@H]2CO)[C@]2(C)N=C(/C(C)=C3N=C(/C=C4N=C1[C@@H](CCC(N)=O)C\4(C)C)[C@@H](CCC(N)=O)[C@]\3(C)CC(N)=O)[C@@H](CCC(N)=O)[C@]2(C)CC(N)=O.[CH3-].[Co]` [methylcobalamine] was tested, and the “phosphotyrosylproteins at 40 and 50 kDa” value (500 μg methylcobalamine/mL) was “faint bands”, the effective concentration (effect on phosphotyrosylprotein expression) was “approximately 500 μg/mL” and the “concentration at which the 45 kDa phosphotyrosylprotein disappears entirely” value (methylcobalamine 5, 50 or 500 μg/mL) was 500 µg/mL. The “number of phosphotyrosylprotein bands decreased in staining intensity / affected” value was “three”.

For `C[C@H]1[C@H](C)CC[C@]2(C(=O)O)CC[C@]3(C)C(=CC[C@@H]4[C@@]5(C)CC[C@H](O)C(C)(C)[C@@H]5CC[C@]43C)[C@H]12` [ursolic acid], the “concentration at which the phosphotyrosylproteins at 28, 30, 50 and 60 kDa are no longer visible” value (highest concentration tested) was 5 µg/mL, the “concentration at which the 17, 20, 28 and 34 kDa phosphotyrosylproteins disappear entirely” value (lowest concentration tested) was 0.5 µg/mL and the “number of phosphotyrosylprotein bands decreased in staining intensity / affected” value was “ten”.
